Measured values: ChEMBL document CHEMBL6127146, “Exploring the Polypharmacological Potential of PCI-27483: A Selective Inhibitor of Carbonic Anhydrases IX and XII” (ACS Med Chem Lett, 2024)

Molecular target: Carbonic anhydrase 3 (Homo sapiens, UniProt P07451)
Sequence (P07451 whole entry): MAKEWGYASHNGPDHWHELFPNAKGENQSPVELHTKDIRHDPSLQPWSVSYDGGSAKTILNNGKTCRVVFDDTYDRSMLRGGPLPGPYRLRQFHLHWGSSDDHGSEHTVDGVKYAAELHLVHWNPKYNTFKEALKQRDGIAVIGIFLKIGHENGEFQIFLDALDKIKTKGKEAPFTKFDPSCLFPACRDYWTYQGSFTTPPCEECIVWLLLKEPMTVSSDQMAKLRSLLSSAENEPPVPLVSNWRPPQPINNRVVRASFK
Description: Inhibition of human CA3 preincubated for 15 mins by phenol red dye based stopped flow CO2 hydration assay

Ki: > 100 µM
SMILES: N=C(N)c1ccc2nc(-c3cc(CC(=O)N[C@@H](CC(=O)O)C(=O)O)cc(-c4cc(S(N)(=O)=O)ccc4O)c3O)[nH]c2c1 [PCI-27483]
